Patent US9585380B2, “SSAT mRNA translation repression and activation” (TEMPLE UNIVERSITY—Of The Commonwealth System of Higher …, priority 2011, dated 2017)
Counter-ions that a name gives are not always drawn.

Tests used:
SSAT translation [1] = experiment: Reporter system: 5′ UTR lacking uORFs + SSAT coding sequence-luciferase chimeric construct in HEK293T cells; assay type: cell-based, human; settings: wild-type SSAT-luciferase construct, luciferase 16 hours after addition, compared to untreated
Experimental: A chimeric construct (FIG. 15A) comprising a fragment of the 5′ UTR of SSAT lacking the uORF's (see FIG. 7), the SSAT coding sequence (see FIG. 8B), and the luciferase coding sequence was prepared. The SSAT coding sequence is linked in-frame to the luciferase coding sequence. The construct was prepared using appropriate primers and template nucleic acid, and conventional PCR methods. The construct was cloned into pLEX-MCS. To evaluate the effect of small molecules on translation of the chimeric construct, the chimeric construct was transiently transfected into HEK293T cells. The small molecule to be tested was added 24 hours after transfection of the vector. Luciferase activity was evaluated 16 hours after the addition of the small molecule using the ONE-Glo™ Luciferase Assay System (Promega, Madison, Wis.). The luminescence intensity was determined using a GloMax® luminometer (Promega).
In view of the discovery of the contribution of uORF's on translational repression of SSAT mRNA, a reporter system was developed to detect pharmacophores that can modulate SSAT translation. The reporter system is a chimeric construct comprising a 5′ UTR lacking the uORF's and the SSAT coding sequence linked in-frame to the luciferase coding sequence. (FIG. 15A). The 5′ UTR comprises 66 nucleotides of the native 5′UTR immediately upstream of the starting AUG codon.
Release of translational repression of the chimeric construct was tested in the presence of several small molecules. Release of translational repression was assessed by detection of luciferase activity. The small molecules tested were: DENSPM and three uncharacterized polyamine analogs designated polyamine analog 1; polyamine analog 2; and polyamine analog 3. Cisplatin and 5-FU were tested as negative controls.

SSAT translation [2] = experiment: DENSPM dose response curve with mutant 6 chimeric construct; assay type: cell-based, human; settings: mutant 6 construct, DENSPM 0.08 μM to 40 μM, HEK293T
Experimental: The chimeric construct to be tested was transiently transfected into HEK293T cells. Twenty-four hours after transfection of the vector, DENSPM was added to the desired final concentration (ranged from 0.08 micromolar to 40 micromolar). Luciferase activity was evaluated 16 hours after the addition of DENSPM using the ONE-Glo™ Luciferase Assay System. The luminescence intensity was determined using a GloMax® luminometer (Promega). The experiment was run in triplicates to obtain error bars and evaluate reproducibility.
A dose response experiment was performed using the mutant 6 chimeric construct. Specifically, the stimulation of mutant 6 translation by ten different concentrations of DENSPM was assayed. The DENSPM concentrations ranged from 0.08 micromolar (μM) to 40 μM. The dose response curve is depicted in FIG. 20.

SSAT translation [3] = experiment: Drug screening with mutant 6 SSAT-luciferase reporter construct in transfected HEK 293T cells; assay type: cell-based, human; settings: Homo sapiens; 10 μM test compound, HEK 293T cells transfected with mutant 6 construct, luciferase signal twelve hours after treatment
Experimental: The mutant 6 chimeric construct of Example 4 (A424C; A426C; FIG. 18G) cloned into pLEX MCS plasmid was utilized in drug screening as follows. HEK 293T cells (ATCC) were grown in DMEM supplemented with 10% fetal bovine serum and antibiotics. The HEK 293T cells were transfected with the mutant 6/pLEX MCS plasmid using HTS-Jetpei transfection reagent (Polyplus Transfection, Illkirch, France). Transfected HEK293T cells were incubated overnight at 37° C. After 24 hours, cells transfected cells in 96-well plates used for screening were treated with 10 μM of test compound from a compound library in DMSO. Untreated cells were used as the negative control, and cells treated with 10 μM DENSPM comprised a positive control. The luciferase signaling in each plate was independently analyzed using a Glomax Luminometer (Promega Corp.) by comparing the signals against the controls twelve hours after treatment.
The procedure of Example 6 was followed, screening for compounds that increase SSAT translation. The agents listed in Table 11 were identified as increasing SSAT translation by at least 35% over basal SSAT translation.

nucleolin = settings: HEK293T exposed to 2 mM spermine for 12 hours versus controls
Experimental: In addition, a sample of RNA-interacting proteins obtained from a Sepharose-streptomycin-chimeric RNA column described above was subjected to the same 2DE separation. The sample was initially concentrated to 30 μL using a Nanosep 3000 (Pall Corp) and dialyzed with 0.1×PBS for 12 h using a Slide-A-Lyzer 7K mini unit (Pierce Biotech). After separation by 2DE, the proteins were transferred to a nitrocellulose membrane using a Mini Trans Blot System (Biorad) and were Western blotted using anti-nucleolin monoclonal antibody.

SSAT translation [4] = test system: SSAT translation

Row | SMILES | Release of translational repression of the chimeric construct (luciferase activity) (SSAT translation [1]) | inhibition at 10 µM (SSAT translation [3]) [%] | also measured
1 | CCNCCCNCCCNCCCNCC [DENSPM, N^1-N^11 diethylnorspermine] | relieved | – | Dose dependency of stimulation of translation of SSAT mRNA having CGC encoding Arg142 (SSAT translation [2]): dose dependency over at least two orders of magnitude
2 | O=c1[nH]cc(F)c(=O)[nH]1 [Mutant 5-FU, 5-FU] | about the same as in the absence of a small molecule | – | –
3 | CN(C)CCOc1ccc(/C(=C(/CCCl)c2ccccc2)c2ccccc2)cc1 [Toremifene, 2-{4-[(1Z)-4-chloro-1,2-diphenyl-but-1-en-1-yl]phenoxy}-N,N-dimethylethanamine] | – | 86.3 | –
4 | Fc1ccc(C(OCCN2CCN(CCCc3ccccc3)CC2)c2ccc(F)cc2)cc1 [Vanoxerine dihydrochloride, 1-[2-[bis(4-fluorophenyl)methoxy]ethyl]-4-(3-phenylpropyl)piperazine•(HCl)2] | – | 96.9 | –
5 | N.N.[Cl][Pt][Cl] [cisplatin, Cisplatin] | about the same as in the absence of a small molecule | – | –
6 | NCCCNCCCCNCCCN [spermine] | – | – | 55 KDa nucleolin isoform (2D-PAGE Western blot) (nucleolin): absent; SSAT expression (Western blot) (SSAT translation [4]; constructs with or without uORFs, presence of spermine): stimulated expression; Repression of eGFP expression by the SSAT stem loop (Loop eGFP, Western blot) (SSAT translation [4]; exogenous spermine, HEK293T): partially reversed
